# According to ChEMBL document CHEMBL1154782, “Discovery of Trp-His and His-Arg analogues as new structural classes of short antimicrobial peptides” (J Med Chem, 2009):
# Key:
# Staphylococcus aureus [1] = test: Antibacterial activity against methicillin-resistant Staphylococcus aureus DSM 50128509 after 15 to 18 hrs under aerobic condition by modified broth microdilution method; assay type: functional
# Staphylococcus aureus [2] = test: Antibacterial activity against methicillin-resistant Staphylococcus aureus DSM 50128509; assay type: functional, organism-based
# [3] = system: Staphylococcus epidermidis; test: Antibacterial activity against methicillin-resistant Staphylococcus epidermidis DSM 50160384 after 15 to 18 hrs under aerobic condition by modified broth microdilution method; assay type: functional
# Escherichia coli [4] = test: Antibacterial activity against Escherichia coli ATCC 35218 after 15 to 18 hrs under aerobic condition by modified broth microdilution method; assay type: functional
# Klebsiella pneumoniae = test: Antibacterial activity against Klebsiella pneumoniae ATCC 700603 after 15 to 18 hrs under aerobic condition by modified broth microdilution method; assay type: functional
# Pseudomonas aeruginosa = test: Antibacterial activity against Pseudomonas aeruginosa ATCC 9027 after 15 to 18 hrs under aerobic condition by modified broth microdilution method; assay type: functional
# Candida albicans [5] = test: Antifungal activity against Candida albicans ATCC 10231 after 15 to 18 hrs under aerobic condition by modified broth microdilution method; assay type: functional
# L929 = test: Cytotoxicity against mouse L929 cells up to 200 ug/mL after 5 days by MTT assay; assay type: cell-based; conditions: l929, 120 h
# Candida albicans [6] = test: Antifungal activity against Candida albicans ATCC 10231; assay type: functional, organism-based
# [7] = system: Staphylococcus epidermidis; test: Antibacterial activity against methicillin-resistant Staphylococcus epidermidis DSM 50160384; assay type: functional, organism-based
# Escherichia coli [8] = test: Antibacterial activity against Escherichia coli ATCC 35218; assay type: functional, organism-based
SMILES,MIC (Staphylococcus aureus [1]) [µg/mL],IC50 (Staphylococcus aureus [2]) [µg/mL],MIC [3] [µg/mL],MIC (Escherichia coli [4]) [µg/mL],MIC (Klebsiella pneumoniae) [µg/mL],MIC (Pseudomonas aeruginosa) [µg/mL],MIC (Candida albicans [5]) [µg/mL],Activity (L929),IC50 (Candida albicans [6]) [µg/mL],IC50 [7] [µg/mL],IC50 (Escherichia coli [8]) [µg/mL]
CC(C)c1nc(C[C@H](NC(=O)[C@H](Cc2c[nH]c3ccccc23)NC(=O)OC(C)(C)C)C(=O)NCc2ccccc2)c[nH]1,200,10.3,> 200,> 200,> 200,> 200,> 200,Non-toxic,–,–,–
CC(C)(C)OC(=O)N[C@@H](Cc1c[nH]c2ccccc12)C(=O)N[C@@H](Cc1c[nH]c(C2CCC2)n1)C(=O)NCc1ccccc1,200,22.4,> 200,> 200,> 200,> 200,200,Non-toxic,33.2,–,–
CC(C)(C)OC(=O)N[C@@H](Cc1c[nH]c2ccccc12)C(=O)N[C@@H](Cc1c[nH]c(C(C)(C)C)n1)C(=O)NCc1ccccc1,> 200,–,> 200,> 200,> 200,> 200,> 200,Non-toxic,–,–,–
COC(=O)[C@H](Cc1c[nH]c(C(C)C)n1)NC(=O)[C@H](Cc1c[nH]c2ccccc12)NC(=O)OC(C)(C)C,> 200,–,> 200,> 200,> 200,> 200,> 200,Non-toxic,–,–,–
CC(C)(C)c1nc(C[C@H](N)C(=O)N[C@@H](CCCNC(=N)N)C(=O)NCc2ccccc2)c[nH]1,20,4.18,10,> 200,> 200,> 200,> 200,Non-toxic,–,3.13,–
CC(C)(C)OC(=O)N[C@@H](Cc1c[nH]c(C2CCCCC2)n1)C(=O)N[C@@H](CCCNC(=N)N)C(=O)NCc1ccccc1,100,12.1,100,200,> 200,> 200,> 200,Non-toxic,–,18.4,–
CC(C)c1nc(C[C@H](NC(=O)[C@@H](N)Cc2c[nH]c3ccccc23)C(=O)NCc2ccccc2)c[nH]1,> 200,–,100,> 200,> 200,> 200,> 200,Non-toxic,–,12.8,–
COC(=O)[C@H](Cc1c[nH]c(C2CCC2)n1)NC(=O)[C@H](Cc1c[nH]c2ccccc12)NC(=O)OC(C)(C)C,100,2.95,100,200,> 200,> 200,> 200,Non-toxic,–,5.44,24.6
COC(=O)[C@H](CCCNC(=N)N)NC(=O)[C@@H](N)Cc1c[nH]c(C(C)C)n1,50,4.82,50,200,> 200,> 200,> 200,Non-toxic,–,5.42,9.98
N=C(N)NCCC[C@H](NC(=O)[C@@H](N)Cc1c[nH]c(C2CCC2)n1)C(=O)NCc1ccccc1,50,6.99,50,> 200,> 200,> 200,100,Non-toxic,9.95,3.94,–
COC(=O)[C@H](CCCNC(=N)N)NC(=O)[C@@H](N)Cc1c[nH]c(C2CCCCC2)n1,50,20.9,10,> 200,> 200,> 200,200,Non-toxic,27.5,1.92,–
COC(=O)[C@H](Cc1c[nH]c(C(C)(C)C)n1)NC(=O)[C@H](Cc1c[nH]c2ccccc12)NC(=O)OC(C)(C)C,50,4.35,100,200,> 200,> 200,> 200,Non-toxic,–,8.12,16.3
CC(C)(C)c1nc(C[C@H](NC(=O)[C@@H](N)Cc2c[nH]c3ccccc23)C(=O)NCc2ccccc2)c[nH]1,> 200,–,100,> 200,> 200,> 200,> 200,Non-toxic,–,9.24,–
